Test results from patent publication US9855238B2, “Compositions comprising 15-HEPE and methods of using the same” (Afimmune Limited, priority 2015, dated 2018).
“And” between values parts separate entries of the source, which are not always exact repeats. Equal entries are not always repeated.

Key:
Type in all cases: in vivo, human
[1] = Phase I Part 2 multiple ascending dose (MAD) pharmacokinetics of plasma 15(S)-HEPE, QD for 28 days, fasted; conditions: for AUC0-last / Cmax: geom. mean; for Tlast / Tmax: median; for RAUC / RCmax: mean ± SD
Experimental: (§1) A Phase I, single-centre, randomised, double-blind, placebo-controlled study in male and female healthy volunteers aged 18 to 45 years, inclusive was performed. Fifty-seven (57) subjects were enrolled with 8 subjects per cohort (ideally 4 males and 4 females, but no less than 3 per gender). Cohort 5 enrolled a total of 9 subjects to account for discontinued subjects. The effective date of study commencement was defined as inclusion of the first subject (inclusion starts with the informed consent signature). Subjects who were enrolled in Part 1 of the study (single dose cohorts) could have been brought back and re-enrolled in Part 2 (multiple dose) provided they had no AEs related to the study drug and that there was at least a 14-day washout period before starting the multiple dose. There were 18 subjects who participated in both study parts. The subjects underwent screening within 21 days prior to study Day 1.
Part 2 of the study involved a multipledose regimen at 3 dose levels using 3 cohorts consisting of 8 subjects each. Six (6) subjects were randomized to receive DS102 and 2 subjects received matching placebo. Cohorts 5 and 6 (9 and 8 subjects, respectively) received oral DS102 or placebo QD for 28 days.
In Part 2, DS102 capsules (Lot No. 2540M-1504) or matching placebo (Lot No. KM73) were administered QD for 28 days according to Table 2.
(§2) For study Part 1, Cohorts 1, 2, 3, and 4 blood samples were taken predose on Day 1 up to 312 hours postdose. For study Part 2, Cohorts 5, 6, and 7 blood samples were taken on Days 1, 14, and 28 at predose and up to 168 hours postdose. The appropriate PK parameters, e.g., Cmax, Tmax, AUC0-24, AUC0-last, AUC0-inf, AUC % ext, Kel, t½, RCmax, and RAUC were presented, where appropriate. Plasma 15(S)-HEPE data contained many values below the limit of quantitation (BLQ) and only sparse measurable concentrations leading to incomplete PK profiles. Given the nature of the data observed, conventional dose proportionality and steady-state analyses could not be performed. No inferential statistical analyses were performed for PK parameters.
(§3) Summary statistics, including sample size (N), arithmetic mean (mean), standard deviation (SD), coefficient of variation (CV %), median, minimum, and maximum were calculated for all nominal concentration time points. Plasma 15(S)-HEPE PK parameters were tabulated by treatment and listed by subject and parameter. Summary statistics (N, mean, SD, CV %, median, minimum, and maximum) were calculated for plasma 15(S)-HEPE PK parameters. In addition, geometric mean (Geom. Mean) and geometric CV % (Geom. CV %) were presented for AUCs and Cmax. Excluded subjects were included in the PK parameter table listings, but were excluded from the summary statistics and noted as such in the tables. Mean and individual concentration-time profiles were presented on linear and semi-log scales. Linear mean plots were presented with and without SD. Individual plots were presented on linear and semi-log scales.

[2] = Phase I Part 1 single ascending dose (SAD) pharmacokinetics of plasma 15(S)-HEPE, fasted; conditions: for AUC0-last / Cmax / Tlast / Tmax: plasma 15(S)-HEPE, Day 1; for AUC0-last / Cmax: geom. mean (geom. CV %); for Tlast / Tmax: median (minimum, maximum)
Experimental: as §1
Part 1 comprised 4 dose cohorts (100 mg, 500 mg, 1000 mg, and 2000 mg). Six (6) subjects were randomized to receive DS102 and 2 subjects received matching placebo. A single oral dose of DS102 or matching placebo was administered.
(§4) In Part 1, DS102 capsules (Lot No. 2540M-1504) or matching placebo (Lot No. KM73) were administered in a single oral dose according to Table 1.
as §2, §3

[3] = Phase I Part 1 food effect pharmacokinetics of plasma 15(S)-HEPE (standard ATPIII/TLC diet, high-fat diet); conditions: for Tlast / Tmax: median
Experimental: as §1
Cohort 2 also received 500 mg of DS102 in 2 fed states. While the first 500 mg dose was given in fasted state, the second and third 500 mg doses were given in fed state (standard ATPIII/TLC diet and high-fat diet, respectively). The second dose was received at least 14 days after their first dose and the third dose was received at least 14 days after their second dose.
as §4, §2, §3

[4] = Phase I safety evaluation (AEs, clinical laboratory tests, vital signs, ECGs); conditions: healthy subjects
Experimental: as §1
All clinical safety data were presented in by-subject data listings. Safety was evaluated by clinical laboratory tests, physical examination, vital signs, electrocardiograms (ECGs), and adverse events (AEs).
Continuous variables were summarized using number of observations (N), mean, SD, median, minimum, and maximum. Frequency counts were reported for categorical data. AEs were classified according to the Medical Dictionary for Regulatory Activities (MedDRA®), Version 18.0. Concomitant medications were classified according to the World Health Organization (WHO) Drug Dictionary 1 Mar. 2015. Vital sign, ECG, and laboratory summary and change from baseline results were presented. Shift tables were also presented for laboratory and ECG parameters.

[5] = 500 mg QD fasted, Days 14 and 28
[6] = plasma 15(S)-HEPE, 500 mg QD fasted, Day 1, N = 6
[7] = plasma 15(S)-HEPE, 500 mg QD fasted, Day 1, reported only for Subject 38
[8] = plasma 15(S)-HEPE, 500 mg QD fasted, Day 14, N = 3
[9] = plasma 15(S)-HEPE, 500 mg QD fasted, Day 28, N = 2
[10] = single oral 500 mg fasted, N = 2
[11] = single oral 1000 mg fasted, N = 3
[12] = single oral 2000 mg fasted, N = 3
[13] = plasma 15(S)-HEPE, single oral 500 mg fed high fat diet, N = 6, geom. mean
[14] = plasma 15(S)-HEPE, single oral 500 mg fed high fat diet, N = 6
[15] = plasma 15(S)-HEPE, single oral 500 mg fed standard diet, N = 6, geom. mean
[16] = plasma 15(S)-HEPE, single oral 500 mg fed standard diet, N = 6
[17] = single oral 500 mg with a standard or high-fat diet

Substance: 15-Hydroxy-Eicosapentaenoic Acid Ethyl Ester [DS102]
- time of peak mean 15(S)-HEPE concentrations ([1]; 500 mg QD fasted, Day 1): 4 h
- time plasma concentrations remained measurable in at least one subject ([1]; 500 mg QD fasted, Day 14): 24 hours postdose
- time plasma concentrations remained measurable in at least one subject ([1]; 500 mg QD fasted, Days 1 and 28): 12 hours postdose
- predose values (troughs) [1, 5]: not quantifiable
- time of peak mean 15(S)-HEPE concentrations [1, 5]: 6 h
- mean plasma 15(S)-HEPE concentrations by study day ([1]; 1000 mg QD fasted): higher on Day 14 than on Days 1 and 28
- time plasma concentrations remained quantifiable in at least one subject ([1]; 1000 mg QD fasted, Day 14): 12 hours postdose
- time plasma concentrations remained quantifiable in at least one subject ([1]; 1000 mg QD fasted, Days 1 and 28): 8 hours postdose
- predose values (troughs) ([1]; 1000 mg QD fasted, Days 14 and 28): no quantifiable predose values
- AUC0-last [1, 6]: 1681 ng·h/mL
- Cmax [1, 6]: 459.1 ng/mL
- Tlast [1, 6]: 8.079 h
- Tmax [1, 6]: 5.005 h
- AUC0-24 [1, 7]: 6249 ng·h/mL
- AUC0-inf [1, 7]: 6277 ng·h/mL
- Kel [1, 7]: 0.245 h⁻¹
- t½ [1, 7]: 2.824 h
- AUC0-last [1, 8]: 2370 ng·h/mL
- Cmax [1, 8]: 644.1 ng/mL
- RAUC [1, 8]: 6.807 ± 10.322
- RCmax [1, 8]: 4.177 ± 5.4055
- Tlast [1, 8]: 8.034 h
- Tmax [1, 8]: 5.995 h
- AUC0-last [1, 9]: 2787 ng·h/mL
- Cmax [1, 9]: 737.4 ng/mL
- RAUC [1, 9]: 8.205 ± 10.210
- RCmax [1, 9]: 5.923 ± 6.8329
- Tlast [1, 9]: 10.002 h
- Tmax [1, 9]: 6.004 h
- AUC0-last [2, 10]: 1270 (70.9) ng * hr/mL and 1270 ng * hr/mL
- Cmax [2, 10]: 343.7 (52.1) ng/mL and 343.7 ng/mL
- Tlast [2, 10]: 8.001 (8.00, 8.00) hr and 8.001 hr
- Tmax [2, 10]: 6.005 (6.00, 6.01) hr and 6.005 hr
- AUC0-last [2, 11]: 1063 (102.6) ng * hr/mL
- Cmax [2, 11]: 366.2 (102.5) ng/mL
- Tlast [2, 11]: 7.999 (8.00, 8.00) hr
- Tmax [2, 11]: 5.996 (5.99, 6.00) hr
- AUC0-last [2, 12]: 733.3 (56.5) ng * hr/mL
- Cmax [2, 12]: 294.3 (70.1) ng/mL
- Tlast [2, 12]: 8.001 (8.00, 8.01) hr
- Tmax [2, 12]: 8.001 (6.01, 8.01) hr
- Plasma concentrations of 15(S)-HEPE ([2]; single oral 100 mg fasted, entire sampling interval, all subjects): BLQ
- median Tmax ([2]; single oral 500 mg fasted): 6.00 h
- median Tmax ([2]; single oral 1000 mg fasted): 6.00 h
- median Tmax ([2]; single oral 2000 mg fasted): 8.00 h
- delay of apparition of 15(S)-HEPE in plasma ([3]; 500 mg with high-fat diet compared to standard diet): 2 h
- effect of fed state on 15(S)-HEPE absorption ([3]; fed state (standard or high-fat diet)): considerably increase 15(S)-HEPE absorption
- AUC0-last [3, 13]: 9693 ng·h/mL
- Cmax [3, 13]: 2402 ng/mL
- Tlast [3, 14]: 11.993 h
- Tmax [3, 14]: 6.021 h
- AUC0-24 [3, 15]: 10940 ng·h/mL
- AUC0-last [3, 15]: 8450 ng·h/mL
- Cmax [3, 15]: 2420 ng/mL
- Tlast [3, 16]: 8.017 h
- Tmax [3, 16]: 4.014 h
- AUC0-inf ([3]; plasma 15(S)-HEPE, single oral 500 mg fed standard diet, calculable for 4 subjects, geom. mean): 11050 ng·h/mL
- t½ ([3]; plasma 15(S)-HEPE, single oral 500 mg fed standard diet, calculable for 4 subjects, mean ± SD): 1.998 ± 1.5155 h
- Kel ([3]; plasma 15(S)-HEPE, single oral 500 mg fed standard diet, mean ± SD): 0.471 ± 0.228 h⁻¹
- median Tmax ([3]; single oral 500 mg after a high-fat diet): 6.00 h
- median Tmax ([3]; single oral 500 mg after a standard diet): 4.00 h
- time at which peak mean plasma concentrations were reached [3, 17]: approximately 4 hours
- time plasma concentrations remained quantifiable in at least one subject [3, 17]: 12 hours postdose
- mean 15(S)-HEPE t½ ([3]; single oral 500 mg, standard diet): 2.00 h and 2.0 h
- effect of diet on mean maximum and overall exposure of 15(S)-HEPE (Cmax and AUC0-last) ([3]; single oral 500 mg, standard or high-fat diet relative to fasted): increased mean maximum and overall exposure
- mean plasma concentrations of 15(S)-HEPE, fed versus fasted ([3]; single oral 500 mg, standard or high-fat diet vs fasted): higher under fed conditions
- adverse events considered related to the study treatment ([4]; following DS102 treatment): dysguesia and eructation
- deaths, serious adverse events, discontinuations due to AEs ([4]; single and multiple ascending doses): no deaths, serious adverse events (SAEs), or subject discontinuations due to AEs
- safety and tolerability ([4]; single ascending doses of 100 mg, 500 mg, 1000 mg and 2000 mg and multiple ascending doses of 500 mg, 500 and 1000 mg): safe and well tolerated
